Reference: the SangsterLogP compilation
Where a SMILES comes first, the peptide text is derived from it. The star is where a group is joined. X1 = O=C(CCCCSc1ncnc2nc[nH]c12)*

Test: from Bachrata, M.; Bezakova, Z.; Pesák, M.; Blesova, M. (1983). Study of physicochemical properties of substances with cancerostatic effect. II. Study of lipo-hydrophilic parameters. Acta Fac. Pharm. …
Conditions: pH 7.0

SMILES | logD
CCOC(=O)CNC(=O)CNC(=O)CNC(=O)CCCCSc1ncnc2nc[nH]c12 | 0.21
CCOC(=O)C(NC(=O)CCCCSc1ncnc2nc[nH]c12)c1ccccc1 (configuration not stated) | 1.13
CCOC(=O)[C@H](CC(C)C)NC(=O)CNC(=O)CNC(=O)CCCCSc1ncnc2nc[nH]c12 | 1.07
CCOC(=O)CNC(=O)CNC(=O)CNC(=O)CNC(=O)CCCCSc1ncnc2nc[nH]c12 (X1-GGGG-OEt) | -0.23
CCOC(=O)C(NC(=O)CCCCSc1ncnc2[nH]cnc12)C(C)C (racemic) | 1.89
c1ncc2[nH]cnc2n1 | -0.21

Next, values leading:

logD | SMILES
1.33 | CCOC(=O)C[C@H](NC(=O)CCCCSc1ncnc2nc[nH]c12)C(=O)OCC
1.39 | CCCCOC(=O)CNC(=O)CCCCSc1ncnc2nc[nH]c12
0.5 | CCOC(=O)CNC(=O)CNC(=O)CCCCSc1ncnc2nc[nH]c12
1.51 | CCOC(=O)C(C)NC(=O)CCCCSc1ncnc2nc[nH]c12 (configuration not stated)
1.37 | CCCOC(=O)CNC(=O)CCCCSc1ncnc2nc[nH]c12
0.91 | CCOC(=O)CNC(=O)CCCCSc1ncnc2nc[nH]c12
